Data as given in US20050037939A1, “Bottlewash additive” (Scimed Life Systems, Inc., priority 2002, published 2005).

System: mold on REF-PET bottles
Experiment: Mold Remove Ability Test
Settings: alkaline bottlewashing environment; conditions not given
Protocol: 1. Mold Remove Ability Test A) Compositions are prepared according to the following general formula: [table] B) Select field returned bottles with heavy mold (black). Select 4 bottles per testing sequence. C) Cut the mold samples from REF-PET bottles using a utility knife. D) Label PET/mold pieces to keep track of the source bottle and the solution in which they are tested. E) Prepare solutions using 2.8% NaOH and 1% of the bottlewashing additive unless otherwise specified. F) Preheat the solutions to 55° C. G) Immerse PET/mold samples in respective bottlewashing compositions and soaked for 15 minutes with stirring at 400 rpm. H) If the mold is removed during testing note the time of removal. I) Remove the samples from solution. If the mold was not removed, rinse the sample in tap water for 10 seconds to see if mold can be removed at this point. J) Grade the samples by a % of mold removed and average the 4 tests as well as the time required for removal (Time Removal Grade). Time Grade is defined as follows: [table] Other Grades may be in between or lower depending on total mold removal

C6 alkyl diphenylene oxide disulfonate
cleaning / mold removal by the surfactant (general statement): superior cleaning/mold removal characteristics
